Reference: US12116371B2, “Substituted pyridines as irreversible inhibitors of menin-MLL interaction” (BIOMEA FUSION, INC., priority 2018, dated 2024)
Where two headings read alike, the source gives them in different places.

Columns and labels:
HL-60 cells [1] = test: Cell proliferation inhibition, CellTiterGlo viability assay, 4 days (Example 102); type: cell-based; conditions: 4 days treatment
Source text: (§1) The objective of the study was to evaluate the ability of compounds of the invention, inhibitors of Menin/MLL interaction to inhibit cell proliferation. The proliferation inhibitory effect was investigated in two human MLL-leukemia cells selected on the bases of MLL fusion protein and listed in Table 1. HL-60 cell line was used as negative control (Table 3).
(§2) ATP is present in all metabolically active cells and is considered as a marker for cell viability and proliferation. The metabolic cell activity was determined using the CellTiter-Glo kit from Promega, an ATP monitoring system based on the production of luminescence by the reaction of ATP with added UltraGlo® recombinant luciferase (Kawano et al., 2016), according to the supplier's experimental recommendations.
(§3) The described assay evaluates the ability of representative compounds of invention to inhibit the cell proliferation in the human MLL-leukemia cells plus a negative control cell line.
(§4) The assay provides potency values (IC50) for each test compound at a single time point Day 4 (T4).
(§5) Seven concentrations of the NCEs (2.00E-05-6.67E-06-2.22E-06-7.41E-07-2.47E-07-8.23E-08-2.74E-08M), were assessed in duplicate in an individual test occasion in all the cell lines. MI-503 (Borkin et al., 2015) was used as reference compound and was tested at the same concentrations as the NCEs. 100% of proliferation is represented by the untreated cells (0.2% DMSO). The cell growth was monitored up to 4 days in culture.
(§6) MV4-11, MOLM-13 and HL-60 cells (see Table 2) were maintained in RPMI-1640 medium (Invitrogen, Cat. n. 618700, Batch n. 1965930) supplemented with 10% of Heat Inactivated FBS (Invitrogen, Cat n. 10500, Batch n. 08Q8078K) and 1% Pen-Strep (Invitrogen, Cat. N. 15140, Batch n. 1910859) and cultured at 37° C. in a humidified incubator with 5% CO2. All the cell lines grow in suspension and the cell density was maintained in a range of 2×10^5-1×10^6 viable cells/ml. Cells were pelleted at 130 g×5 min and conditioned medium was used to dilute the cell suspension.
(§7) Cells were plated in 96-well flat bottom microtiter plates at cell density of 15,000 cells/ml for HL-60, 1000 cells/ml for MOLM-13 and 10,000 cell/ml for MV4-11. Cells were treated with 0.2% DMSO (Sigma, D8418, batch n. SHBH4245V) or serial dilutions of compounds ([…]) in DMSO (0.2% final concentration). Cells were incubated in a 5% CO2 incubator at 37° C. for 4 days. A CellTiterGlo viability assay (Promega) was employed. Luminescence was read by using VictorV (Perkin Elmer) multilabel plate reader using the standard protocol for luminescence in 96 well plate. The experiment was performed in duplicate.
(§8) Data were expressed as % of inhibition compared to the 0.2% DMSO negative control, and was calculated as follows: % inhibition=100−[(RLU sample)×100/(RLU average controls*)]*cells containing 0.2% DMSO
(§9) CRCs were analysed by GraphPad and IC50 values were calculated by non-linear regression using 4 parameter-logistic equation. IC50 (μM) values were reported in the final data table. The curve fittings were performed leaving free all the parameters. Any constrain were reported in the results table.

MV4-11 (MLL-AF4) cells [2] = test: Long-term proliferation (LTP) assay, CellTiterGlo (Example 103); type: cell-based, human; conditions: for IC50: Homo sapiens, MV4-11 (MLL-AF4), LTP assay
Procedure: (§10) The day of the experiment (TO) all the cell line suspensions were counted by Cell Viability Analyser, Vi-CELL and properly diluted with fresh medium to obtain the cell density reported in the Test System paragraph.
(§11) Cells were tested after 4 passages after thawing.
(§12) 200 μL/well and 150 μL/well of cell suspension were added into the 0.4 µL/well and 0.3 μL/well compound plates, respectively. • Cell plate containing 200 μL/well suspension was incubated at 37° C. in a humidified incubator with 5% CO2. • From each well of the 150 µL/well cell assay plate, 100 μL were harvested and transferred into a 96-well Optiplate (Perkin Elmer, Cat. n. 6005290) and cell viability was measured as described in 4.3 paragraphs (TO). • After four days in culture (T4) 150 μL/well of fresh medium were added into a new […] copy compound plate. • From each well of the 200 μL/well cell assay plate: • 100 μL were sampled for the cell viability measurement as described in 4.3 paragraphs (T4). • 50 μL were harvested and added to the 150 μL/well compound plate prepared as described in the first point to dilute 1:4 the cell suspension. • The cell assay plate diluted and containing 200 µL/well suspension were incubated at 37° C. in a humidified incubator with 5% CO2.
(§13) At T7-T11-T14 it was proceeded as described in T4, with the exception that no further cell dilution was carried out at T14.
(§14) Plates containing the samples to be tested were equilibrated at room temperature for approximately 30 min and then 30 μL/well of the Promega CellTiterGlo® reagent were added. Contents will be mixed for 5 min on an orbital shaker to induce cell lysis and then incubated at room temperature for an additional 10 min to stabilize the luminescent signal.
(§15) Luminescence was read by using VictorV (Perkin Elmer) multilabel plate reader using the standard protocol for luminescence in 96 well plate.
(§16) Data were expressed as % of inhibition compared to the 0.2% DMSO negative control, and was calculated as follows: % inhibition=100−[(RLU sample)×100/(RLU average controls*)] • *cells containing 0.2% DMSO
(§17) CRCs were analysed by GraphPad and IC50 values were calculated by non-linear regression using 4 parameter-logistic equation. IC50 (M) values were reported in the final data table.

MOLM-13 (MLL-AF9) cells [3] = test: as above; type: cell-based, human; conditions: for IC50: Homo sapiens, MOLM-13 (MLL-AF9), LTP assay
Procedure: as §10, §11, §12, §13, §14, §15, §16, §17

RS4-11 (MLL-AF4) cells = test: as above; type: cell-based; conditions: for IC50: Homo sapiens, RS4-11 (MLL-AF4), LTP assay; for effect on cell viability at T4: RS4;11, increasing concentrations
Procedure: as §10, §11, §12, §13, §14, §15, §16, §17

HL-60 cells [4] = test: as above; type: cell-based; conditions: for IC50: Homo sapiens
Procedure: as §10, §11, §12, §13, §14, §15, §16, §17

MV4-11 (MLL-AF4) cells [5] = test: Cell proliferation inhibition, CellTiterGlo viability assay, 4 days (Example 102); type: cell-based, human; conditions: 4 days treatment
Source text: as §1, §2, §3, §4, §5, §6, §7, §8, §9

MOLM-13 (MLL-AF9) cells [6] = test: as above; type: cell-based, human; conditions: 4 days treatment
Source text: as §1, §2, §3, §4, §5, §6, §7, §8, §9

[7] = biological target: T1, menin-MLL protein-protein interaction (Homo sapiens, UniProt O00255); conditions: S. Xu et al. Angewandte Chemie; cited from earlier work
T1 sequence (O00255 1-610): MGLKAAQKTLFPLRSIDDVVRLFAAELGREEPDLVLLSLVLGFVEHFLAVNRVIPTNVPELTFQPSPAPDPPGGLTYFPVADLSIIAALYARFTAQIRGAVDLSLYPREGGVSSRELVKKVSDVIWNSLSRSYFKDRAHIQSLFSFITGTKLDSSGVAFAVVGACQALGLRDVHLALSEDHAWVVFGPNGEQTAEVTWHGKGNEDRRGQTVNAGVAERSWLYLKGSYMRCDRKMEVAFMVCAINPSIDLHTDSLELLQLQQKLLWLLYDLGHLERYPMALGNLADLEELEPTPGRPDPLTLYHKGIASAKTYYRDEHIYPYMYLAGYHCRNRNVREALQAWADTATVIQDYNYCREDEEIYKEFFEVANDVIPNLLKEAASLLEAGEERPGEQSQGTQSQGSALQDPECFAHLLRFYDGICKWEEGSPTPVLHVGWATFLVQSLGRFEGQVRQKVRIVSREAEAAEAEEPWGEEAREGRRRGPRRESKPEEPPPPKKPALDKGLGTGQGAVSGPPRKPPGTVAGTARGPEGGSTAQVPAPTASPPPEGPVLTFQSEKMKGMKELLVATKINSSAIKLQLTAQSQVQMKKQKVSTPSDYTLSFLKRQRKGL

[8] = Homo sapiens, 96 h, read-out: IC50
[9] = 96 h, Day 4, read-out: Day 4 IC50
[10] = 168 h, Day 7, read-out: Day 7 IC50
[11] = 264 h, Day 11, read-out: Day 11 IC50
[12] = 336 h, Day 14, read-out: Day 14 IC50
[13] = 96 h, Day 4, LTP assay, read-out: Day 4 IC50
[14] = 168 h, Day 7, LTP assay, read-out: Day 7 IC50
[15] = 264 h, Day 11, LTP assay, read-out: Day 11 IC50
[16] = 336 h, Day 14, LTP assay, read-out: Day 14 IC50
[17] = Homo sapiens, 96 h, read-out: pIC50 (converted)

IC50 (MV4-11 (MLL-AF4) cells [2]; [9]) [nM]	IC50 (MV4-11 (MLL-AF4) cells [2]; [10]) [nM]	IC50 (MV4-11 (MLL-AF4) cells [2]; [11]) [nM]	IC50 (MV4-11 (MLL-AF4) cells [2]; [12]) [nM]	IC50 (MOLM-13 (MLL-AF9) cells [3]; [9]) [nM]	IC50 (MOLM-13 (MLL-AF9) cells [3]; [10]) [nM]	IC50 (MOLM-13 (MLL-AF9) cells [3]; [11]) [nM]	IC50 (MOLM-13 (MLL-AF9) cells [3]; [12]) [nM]	IC50 (RS4-11 (MLL-AF4) cells; [9]) [nM]	IC50 (RS4-11 (MLL-AF4) cells; [10]) [nM]	IC50 (RS4-11 (MLL-AF4) cells; [11]) [nM]	IC50 (HL-60 cells [4]; [13]) [nM]	IC50 (HL-60 cells [4]; [14]) [nM]	IC50 (HL-60 cells [4]; [15]) [nM]	IC50 (HL-60 cells [4]; [16]) [nM]	Compound	% max (HL-60 cells [1]; CellTiterGlo) [%]	% max (MV4-11 (MLL-AF4) cells [5]) [%]	% max (MOLM-13 (MLL-AF9) cells [6]) [%]	effect on cell viability at T4 (RS4-11 (MLL-AF4) cells)	also measured
760	580	550	380	830	450	500	720	550	112	> 5000	790	600	780	890	C=CC(=O)NC1CN(c2ccnc(NC(=O)Nc3ccc(-c4cc5c(N6CCOCC6)ncnc5[nH]4)cc3)c2)C1 [Compound 1]	80	98	85	–	IC50 (HL-60 cells [1]; Homo sapiens, 96 h, CellTiterGlo, read-out: pIC50 (converted)): 195 nM; IC50 (HL-60 cells [1]; [8]): 190 nM; IC50 (MV4-11 (MLL-AF4) cells [5]; [8]): 150 nM; IC50 (MV4-11 (MLL-AF4) cells [5]; [17]): 151 nM; IC50 (MOLM-13 (MLL-AF9) cells [6]; [8]): 200 nM; IC50 (MOLM-13 (MLL-AF9) cells [6]; [17]): 200 nM
650	460	350	350	1020	410	320	330	1450	1550	> 5000	1150	680	850	890	CN(C)C/C=C/C(=O)NC1CN(c2ccnc(NC(=O)Nc3ccc(-c4cc5c(N6CCOCC6)ncnc5[nH]4)cc3)c2)C1 [Compound 15]	–	–	–	fully inhibited	effect on cell viability at T4 (MV4-11 (MLL-AF4) cells [2]; MV4-11, T4, increasing concentrations): fully inhibited; effect on cell viability at T4 (MOLM-13 (MLL-AF9) cells [3]; MOLM-13, T4, increasing concentrations): fully inhibited; effect on cell viability at T4 (HL-60 cells [4]; T4, increasing concentrations): fully inhibited
–	–	–	–	–	–	–	–	–	–	–	–	–	–	–	Cc1c(CN2CCC(Nc3ncnc4sc(CC(F)(F)F)cc34)CC2)ccc2c1cc(C#N)n2Cc1cn[nH]c1 [MI-503, reference compound]	103	100	98	–	pIC50 (HL-60 cells [1]; CellTiterGlo): 6.38; IC50 (HL-60 cells [1]; CellTiterGlo, read-out: IC50): 420 nM; pIC50 (MV4-11 (MLL-AF4) cells [5]): 6.73; IC50 (MV4-11 (MLL-AF4) cells [5]; read-out: IC50): 190 nM; pIC50 (MOLM-13 (MLL-AF9) cells [6]): 6.63; IC50 (MOLM-13 (MLL-AF9) cells [6]; read-out: IC50): 230 nM
–	–	–	–	–	–	–	–	–	–	–	–	–	–	–	COC(=O)N[C@H]1CCC[C@@H]1[C@](C#N)(c1cccc(F)c1)C1CCN(CC2CN(c3ccc(S(=O)(=O)C4CN(C(=O)/C=C/CN(C)C)C4)cc3)C2)CC1 [Compound M-525]	–	–	–	–	potency relative to the corresponding reversible inhibitors [7]: > 30 times
–	4370	1700	1230	–	–	1410	3890	1480	930	> 5000	–	–	> 5000	–	C=CC(=O)NC1CN(c2ccnc(NC(=O)Nc3ccc(-c4nc5c(N6CCOCC6)nccc5[nH]4)cc3)c2)C1 [Compound 23]	–	–	–	showed an effect	change of effect with the time in culture (MV4-11 (MLL-AF4) cells [2]; MV4-11, along the 14 days in culture): increase of the effect; IC50 (MOLM-13 (MLL-AF9) cells [3]; 96 h, heading: Day 4 IC50, Day 4, read-out: Day 4 IC50): > 5000 nM; IC50 (MOLM-13 (MLL-AF9) cells [3]; 168 h, heading: Day 7 IC50, Day 7, read-out: Day 7 IC50): > 5000 nM; change of effect with the time in culture (MOLM-13 (MLL-AF9) cells [3]; MOLM-13, along the 14 days in culture): increase of the effect; activity up to T14 (HL-60 cells [4]; up to T14): absence of activity
